Results taken from patent US20170327598A1, “SINGLE DOMAIN ANTIBODIES DIRECTED AGAINST INTRACELLULAR ANTIGENS” (SINGH MOLECULAR MEDICINE, LLC, priority 2014, published 2017).
Several values for one entry are separate records, joined by “and”; a condition that tells them apart may be missing. Equal values may be shown once.

Assays:
PANC-1 cells [1] = assay: MTT proliferation assay, PANC-1; type: cell-based, human; details: for Mean Absorbance (570 nM) ± S.E.: single experiments 1-3, listed as B.VHH13
DU145 cells = assay: MTT proliferation assay, DU145; type: cell-based, human; parameters: Mean Abs: unit of the concentration uncertain
MCF-7 cells = assay: MTT proliferation assay, MCF-7; type: cell-based, human; details: MCF-7, 72 hours
PANC-1 cells [2] = assay: Internalization of sdAb, anti-His tag staining, PANC-1; type: cell-based; details: 18 hours
Experimental: An anti-HIV-1 Reverse Transcriptase (RT) sdAb was used as a negative control.
The slides were incubated for 18 hours after sdAb addition. The chambers were briefly rinsed with media and fixed in ice-cold methanol for 5-10 min. The chambers were then dried and stained with a fluorescent anti-His tag antibody (1:200)(Novus Biologicals, Littleton, Colo.) for 45 min at room temperature. The slides were rinsed in PBS for 5 minutes and mounted.

human KRAS = assay: Biacore 3000 protein binding, KRAS ligand immobilized (Example 22); details: sdAb as analyte
human STAT3 = assay: Biacore 3000 protein binding, STAT3 ligand immobilized (Example 22); details: sdAb as analyte
[3] = test system: STAT3 reporter, induction by interleukin-6; assay: STAT3 reporter GloResponse SIE-luc2P/HEK293 cell assay, IL-6 induction; type: cell-based; details: for decrease in RLU: highest concentration;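 for all read-outs here: IL-6 added at 40 ng/mL (EC80) for roughly one day after pretreatment, luciferase luminescence read with Bio-Glo reagent, untreated +IL6 wells serve as control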
[4] = test system: VEGF-A production in ARPE-19 cells; assay: VEGF-A ELISA in ARPE-19 retinal cells, Experiment 1; type: cell-based, human; details: for Mean (pg VEGF-A per mL): mean of Adj. Result, Wells 1-3; for Mean (pg VEGF-A per μg protein): mean of Wells 1-3; for % Control: normalized for protein; for Adj. Result (pg VEGF-A per mL) / Result (pg VEGF-A per mL): 72 Hr; for Adj. Result (pg VEGF-A per mL): per well, adjusted for dilution; for Result (pg VEGF-A per mL): single reads, higher than top of standard curve
[5] = 24 Hour Treatment Prior to IL6 Induction, high conc.: VHH13 55.8 μg/mL, VHH14 84.3 μg/mL, BB1608 4.16 μM, VHH69 50.5 μg/mL
[6] = 24 Hour Treatment Prior to IL6 Induction, low conc.: VHH13, VHH14, VHH69 10 μg/mL, BB1608 2 μM
[7] = 48 Hour Treatment Prior to IL6 Induction, high conc.: VHH13 55.8 μg/mL, VHH14 84.3 μg/mL, BB1608 4.16 μM, VHH69 50.5 μg/mL
[8] = 48 Hour Treatment Prior to IL6 Induction, low conc.: VHH13, VHH14, VHH69 10 μg/mL, BB1608 2 μM

In the case of “Anti-STAT3 VHH13: anti-STAT3 single domain antibody, SEQ ID NO:3; bacterially produced form referred to as SBT-100”, the “Mean Absorbance (570 nM) ± S.E., Overall Mean” value (shortened to “Mean Absorbance … Overall Mean”) (PANC-1 cells [1]; PANC-1, Day 3, 10.0 μg/ml) is reported as 0.472 ± 0.020, the “Mean Absorbance (570 nM) ± S.E.” value (PANC-1 cells [1]; PANC-1, Day 3, 10.0 μg/ml) is reported as 0.432 ± 0.015 and 0.491 ± 0.087 and 0.493 ± 0.029 and the “Mean Absorbance … Overall Mean” value (PANC-1 cells [1]; PANC-1, Day 3, 100 μg/ml) is reported as 0.214 ± 0.047. For the same substance, the “Mean Absorbance (570 nM) ± S.E.” value (PANC-1 cells [1]; PANC-1, Day 3, 100 μg/ml) was 0.307 ± 0.012 and 0.169 ± 0.094 and 0.166 ± 0.028, the “Mean Absorbance … Overall Mean” value (PANC-1 cells [1]; PANC-1, Day 5, 10.0 μg/ml) was 0.643 ± 0.126 and the “Mean Absorbance … Overall Mean” value (PANC-1 cells [1]; PANC-1, Day 5, 100 μg/ml) was 0.219 ± 0.012. For the same substance, the “Mean Absorbance (570 nM) ± S.E.” value (PANC-1 cells [1]; PANC-1, Day 5, 100 μg/ml) was 0.243 ± 0.024 and 0.211 ± 0.006 and 0.203 ± 0.013, the “Average Absorbance” value (DU145 cells; DU145, 50 μg) was 0.98 and the “Average % Inhibition” value (DU145 cells; DU145, 50 μg (50.0 μg/ml), listed as anti-STAT3 bacterial VHH13) was 31.2%. The Absorbance (DU145 cells; DU145, 50 μg, Experiments 1-3, listed as Anti-STAT3 Bacterial VHH13) was 0.68 and 1.2 and 1.03, the “Average Absorbance” value (DU145 cells; DU145, 100 μg) was 0.10 and the “Mean Abs” value (DU145 cells; Table 18, DU145, 0.39 (unit uncertain)) was 0.906. The “Mean Abs” value (DU145 cells; Table 18, DU145, 3.13 (unit uncertain)) was 0.783, the “Mean Abs” value (DU145 cells; Table 18, DU145, 6.25 (unit uncertain)) was 0.770 and the “Mean Abs” value (DU145 cells; Table 18, DU145, 25 (unit uncertain)) was 0.359. The “Mean Abs” value (DU145 cells; Table 18, DU145, 50 (unit uncertain)) was 0.161, the “Mean Abs” value (DU145 cells; Table 18, DU145, 100 (unit uncertain)) was 0.039 and the “Mean Abs” value (DU145 cells; Table 18, DU145, 200 (unit uncertain)) was 0.039. The “Mean Abs” value (MCF-7 cells; 0.39 μg/ml) was 0.818, the “Mean Abs” value (MCF-7 cells; 3.13 μg/ml) was 0.689 and the “Mean Abs” value (MCF-7 cells; 6.25 μg/ml) was 0.435. For the same substance, the “% Inhibition” value (MCF-7 cells; 25 μg/ml) was 62.1%, the “Mean Abs” value (MCF-7 cells; 25 μg/ml) was 0.212 and the “% Inhibition” value (MCF-7 cells; 50 μg/ml) was 89.9%. For the same substance, the “Mean Abs” value (MCF-7 cells; 50 μg/ml) was 0.057, the “% Inhibition” value (MCF-7 cells; 100 μg/ml) was 93.2% and the “Mean Abs” value (MCF-7 cells; 100 μg/ml) was 0.038. For the same substance, the “% Inhibition” value (MCF-7 cells; 200 μg/ml) was 92.9%, the “Mean Abs” value (MCF-7 cells; 200 μg/ml) was 0.040 and the “internalization, anti-His tag staining” value (PANC-1 cells [2]) was “positive cytoplasmic staining”. For the same substance, the “binding to KRAS ligand” value (human KRAS) was “bound”, the “binding to STAT3 ligand” value (human STAT3) was “bound” and the “Average RLU” value [3, 5] was 11498 RLU. For the same substance, the “Average RLU with Media Blank” value [3, 5] was 11473 RLU, the “Luminescence (RLU), single wells” value [3, 5] was 10992 RLU and 11445 RLU and 12058 RLU and the “Average RLU” value [3, 6] was 175275 RLU. For the same substance, the “Average RLU with Media Blank” value [3, 6] was 175249 RLU, the “Luminescence (RLU), single wells” value [3, 6] was 164397 RLU and 169890 RLU and 191537 RLU and the “Average RLU” value [3, 7] was 89 RLU. For the same substance, the “Average RLU with Media Blank” value [3, 7] was 57 RLU, the “Luminescence (RLU), single wells” value [3, 7] was 104 RLU and 96 RLU and the “Average RLU” value [3, 8] was 182218 RLU. The “Average RLU with Media Blank” value [3, 8] was 182185 RLU, the “Luminescence (RLU), single wells” value [3, 8] was 168740 RLU and 188307 RLU and 189606 RLU and the “effect on IL-6 induction of STAT3 reporter” value ([3]; 24 hours and 48 hours treatment prior to IL-6) was “Inhibition of IL-6”. For the same substance, the “decrease in RLU” value ([3]; 24 hours) was “greater than 10 fold”, the “decrease in RLU” value ([3]; 48 hours) was “greater than 1,000 fold” and the “% Negative Control” value ([4]; 0.1 μg/well, 24 Hr) was 71.1%. The “Mean (pg VEGF-A per mL)” value ([4]; 0.1 μg/well, 24 Hr) was 2060 pg VEGF-A per mL, the “Mean (pg VEGF-A per μg protein)” value ([4]; 0.1 μg/well, 24 Hr) was 66 pg VEGF-A per μg protein and the “% Control” value ([4]; 0.1 μg/well, 24 Hr) was 76.8%. For the same substance, the “Adj. Result (pg VEGF-A per mL)” value ([4]; 0.1 μg/well) was >12,000 pg VEGF-A per mL, the “Result (pg VEGF-A per mL)” value ([4]; 0.1 μg/well) was >6,000 pg VEGF-A per mL and the “Mean (pg VEGF-A per mL)” value ([4]; 0.5 μg/well, 24 Hr) was 2664 pg VEGF-A per mL. The “Mean (pg VEGF-A per μg protein)” value ([4]; 0.5 μg/well, 24 Hr) was 99 pg VEGF-A per μg protein, the “% Control” value ([4]; 0.5 μg/well, 24 Hr) was 115.8% and the “Adj. Result (pg VEGF-A per mL)” value ([4]; 0.5 μg/well) was >12,000 pg VEGF-A per mL. The “Result (pg VEGF-A per mL)” value ([4]; 0.5 μg/well) was >6,000 pg VEGF-A per mL.
